Data as given in patent publication US11981674B1, “7-isopropyl 1-ethyl/methyl 3-(substituted benzoyl)-2-substituted indolizine-1,7-dicarboxylates as larvicidal agents” (KING FAISAL UNIVERSITY, priority 2023, dated 2024).
Like-named read-outs stand apart in the source and are kept apart here.

Test system: Anopheles arabiensis
Test: Larvicidal screening (WHO protocol), 3rd instar larvae
Format: in vivo
Conditions: for mortality at 4 µg/mL: Anopheles arabiensis
Protocol: Anopheles arabiensis was used in the study according to the protocol described by WHO (1975) guidelines in an insectary simulating the temperature (27.5° C.), humidity (70%), and lighting (12/12) of a malaria-endemic environment. One mL of test compound (1 mg/mL) was added to 1 mL of acetone and followed by […] of distilled water to obtain a final concentration of 4 μg/mL. Thirty individuals of 3rd instar larvae were introduced into a container. Negative control was set up using the solvent (acetone) and distilled water, and a positive control included Temephos, which is an active emulsified organophosphate larvicidal used by malaria control programs. Larval mortality was examined for each container separately for 24 h and fed specially made cat food that contained less oil/fat content. The percentage of mortality was determined relative to the initial number of larvae exposed.
Differences in larval mortality between treatments were assessed with generalized linear models using a quasi-Poisson link function. Anopheles arabiensis mortality was the dependent variable, while fixed effects were test compounds and observation period (24 and 48 h). A p-value <0.05 was considered statistically significant. Throughout the text, the results are presented as the adjusted mean±the standard error.

[1] = 24 h, read-out: larval mortality rate in 24 hours
[2] = 48 h, read-out: larval mortality rate in 48 hours

| Molecule | Mortality 24 h (Anopheles arabiensis larvae exposed 24 h, 4 μg/mL, adjusted mean ± standard error) | Mortality 48 h (Anopheles arabiensis larvae exposed 48 h, 4 μg/mL, adjusted mean ± standard error) | larval mortality rate in 24 hours (in 24 hours) | larval mortality rate in 48 hours (in 48 hours) | mortality at 4 µg/mL (24 h, read-out: Mortality 24 h) | mortality at 4 µg/mL [1] | mortality at 4 µg/mL (48 h, read-out: Mortality 48 h) | mortality at 4 µg/mL [2] |
| --- | --- | --- | --- | --- | --- | --- | --- | --- |
| 1-Ethyl 7-isopropyl 3-(3,5-bis(trifluoromethyl)benzoyl)indolizine-1,7-dicarboxylate [Compound 3m] | 93.45 ± 1.29% | 96.12 ± 1.90% | 93.45±1.29 | 96.12±1.90 | – | – | – | – |
| COC(=O)c1c(C(=O)OC)c2cc(C(=O)OC(C)C)ccn2c1C(=O)c1ccccc1 [Compound 3a, 7-Isopropyl 1,2-dimethyl 3-benzoylindolizine-1,2,7-tricarboxylate] | – | – | – | – | 39.2 ± 1.64% | 39.2 ± 1.64% | 45.5 ± 2.65% | 45.5 ± 2.65% |
| CCOC(=O)c1cc(C(=O)c2ccccc2)n2ccc(C(=O)OC(C)C)cc12 [Compound 3b, 1-Ethyl 7-isopropyl 3-benzoylindolizine-1,7-dicarboxylate] | – | – | – | – | 32.6 ± 2.44% | 32.6 ± 2.44% | 36.8 ± 1.79% | 36.8 ± 1.79% |
| COC(=O)c1c(C(=O)OC)c2cc(C(=O)OC(C)C)ccn2c1C(=O)c1ccc(F)cc1 [Compound 3c, 7-Isopropyl 1,2-dimethyl 3-(4-fluorobenzoyl)indolizine-1,2,7-tricarboxylate] | – | – | – | – | 79.1 ± 1.65% | 79.1 ± 1.65% | 82.3 ± 2.71% | 82.3 ± 2.71% |
| CCOC(=O)c1cc(C(=O)c2ccc(F)cc2)n2ccc(C(=O)OC(C)C)cc12 [Compound 3d, 1-Ethyl 7-isopropyl 3-(4-fluorobenzoyl)indolizine-1,7-dicarboxylate] | – | – | – | – | 87.3 ± 1.64% | 87.3 ± 1.64% | 91.2 ± 3.18% | 91.2 ± 3.18% |
| COC(=O)c1c(C(=O)OC)c2cc(C(=O)OC(C)C)ccn2c1C(=O)c1ccc(Cl)cc1 [Compound 3e, 7-Isopropyl 1,2-dimethyl 3-(4-chlorobenzoyl)indolizine-1,2,7-tricarboxylate] | – | – | – | – | 67.9 ± 2.91% | 67.9 ± 2.91% | 70.9 ± 1.67% | 70.9 ± 1.67% |
| CCOC(=O)c1cc(C(=O)c2ccc(Cl)cc2)n2ccc(C(=O)OC(C)C)cc12 [Compound 3f, 1-Ethyl 7-isopropyl 3-(4-chlorobenzoyl)indolizine-1,7-dicarboxylate] | – | – | – | – | 66 ± 2.94% | 66 ± 2.94% | 69.2 ± 2.47% | 69.2 ± 2.47% |
| COC(=O)c1c(C(=O)OC)c2cc(C(=O)OC(C)C)ccn2c1C(=O)c1ccc(Br)cc1 [Compound 3g, 7-Isopropyl 1,2-dimethyl 3-(4-bromobenzoyl)indolizine-1,2,7-tricarboxylate] | – | – | – | – | 89.4 ± 2.42% | 89.4 ± 2.42% | 91.1 ± 2.21% | 91.1 ± 2.21% |
| CCOC(=O)c1cc(C(=O)c2ccc(Br)cc2)n2ccc(C(=O)OC(C)C)cc12 [Compound 3h, 1-Ethyl 7-isopropyl 3-(4-bromobenzoyl)indolizine-1,7-dicarboxylate] | – | – | – | – | 82.3 ± 1.23% | 82.3 ± 1.23% | 86.7 ± 1.39% | 86.7 ± 1.39% |
| COC(=O)c1c(C(=O)OC)c2cc(C(=O)OC(C)C)ccn2c1C(=O)c1ccc(C#N)cc1 [Compound 3i, 7-isopropyl 1,2-dimethyl 3-(4-cyanobenzoyl)indolizine-1,2,7-tricarboxylate] | – | – | – | – | 62.4 ± 1.8% | 62.4 ± 1.8% | 63.8 ± 1.9% | 63.8 ± 1.9% |
| CCOC(=O)c1cc(C(=O)c2ccc(C#N)cc2)n2ccc(C(=O)OC(C)C)cc12 [Compound 3j, 1-Ethyl 7-isopropyl 3-(4-cyanobenzoyl)indolizine-1,7-dicarboxylate] | – | – | – | – | 61.6 ± 1.23% | 61.6 ± 1.23% | 66.1 ± 2.62% | 66.1 ± 2.62% |
| COC(=O)c1c(C(=O)OC)c2cc(C(=O)OC(C)C)ccn2c1C(=O)c1ccc(C)cc1 [Compound 3k, 7-Isopropyl 1,2-dimethyl 3-(4-methylbenzoyl)indolizine-1,2,7-tricarboxylate] | – | – | – | – | 57.5 ± 1.32% | 57.5 ± 1.32% | 60 ± 1.87% | 60 ± 1.87% |
| COC(=O)c1c(C(=O)OC)c2cc(C(=O)OC(C)C)ccn2c1C(=O)c1cc(C(F)(F)F)cc(C(F)(F)F)c1 [Compound 3l, 7-Isopropyl 1,2-dimethyl 3-(3,5-bis(trifluoromethyl)benzoyl)indolizine-1,2,7-tricarboxylate] | – | – | – | – | 97.2 ± 2.3% | 97.2 ± 2.3% | 99.5 ± 1.49% | 99.5 ± 1.49% |
| COP(=S)(OC)Oc1ccc(Sc2ccc(OP(=S)(OC)OC)cc2)cc1 [Temephos, reference compound] | – | – | – | – | 98.3% | – | 100% | – |
